Laboratory results taken from patent publication US20240269139A1, “COMPOUNDS FOR TARGETED PROTEIN DEGRADATION OF KINASES” (DANA-FARBER CANCER INSTITUTE, INC., priority 2020, published 2024).
Like-named read-outs stand apart in the source and are kept apart here.

Tested on: protein kinases (human kinome)
Type: cell-based
Conditions: for logFC CSNK1D: CSNK1D P48730-2; for logFC of FER: FER P16591-3; for logFC LCK: accession P06239-3; for logFC RPS6KA1: RPS6KA1 (Q15418-2)
[1] = Experiment wp107, direction down
[2] = experiment wp016, 1 uM, direction of change down
[3] = experiment wp016, direction of change down
[4] = experiment wp103, direction of change down
[5] = experiment wp107, direction of change down
[6] = experiment wp133, 2 hr, direction of change down
[7] = experiment wp133, 4 hr, direction of change down

CC(C)S(=O)(=O)c1ccccc1Nc1nc(Nc2ccc(N3CCN(CCOCCNC(=O)CNc4cccc5c4C(=O)N(C4CCC(=O)NC4=O)C5=O)CC3)cc2)ncc1Cl (centres unmarked) [SK.3.91]
logFC CSNK1D (experiment wp114): −0.3991
logFC CSNK1D (experiment wp160, 4 hr): −0.3373
logFC PRKAA1 (Q13131-2) (Experiment wp016, 1 uM, direction down): −0.7977
logFC PRKAA1 (Q13131-2) (Experiment wp016, direction down): −0.4914
logFC CDK9 (P50750-2) (Experiment wp103): −0.7857
logFC PRKAA1 (Q13131-2) (Experiment wp103, direction down): −0.5012
logFC PRKAA1 (Q13131-2) (Experiment wp105, direction down): −0.4413
logFC MAP3K12 (Q12852-2) (Experiment wp105, direction of change down): −0.6931
logFC CDK9 (P50750-2) (Experiment wp107): −1.2
logFC of CDK12 (Q9NYV4-2) (Experiment wp107): −1.042
logFC PRKAA1 (Q13131-2) [1]: −0.6352
logFC TNK2 (Q07912-3) [1]: −1.18
logFC of CDK18 (Q07002-3) (Experiment wp114): −0.8295
logFC TNK1 (Q13470-2) (Experiment wp114, direction of change down): −0.7394
logFC PRKAA1 (Q13131-2) (Experiment wp133, 2 hr, direction down): −0.3804
logFC PRKAA1 (Q13131-2) (Experiment wp133, 4 hr, direction down): −0.6752
logFC of CDK12 (Q9NYV4-2) (Experiment wp160, 2 hr): −0.4558
logFC ABL2 (P42684-5) (Experiment wp172): −0.7139
logFC of ABL2 (P42684-5) (Experiment wp172): −0.7139
logFC (FER (P16591-3), experiment wp114, direction down): −2.308
logFC (FER (P16591-3), experiment wp172, direction down): −2.816
logFC of FER (experiment wp114): −2.308
logFC of FER (experiment wp172): −2.816
logFC LCK [2]: −1.579
logFC LCK [3]: −0.9189
logFC LCK [4]: −1.148
logFC LCK [5]: −1.575
logFC LCK [6]: −0.5352
logFC LCK [7]: −1.277
logFC (LIMK2 (P53671-3), experiment wp105, direction down): −0.8401
logFC of LIMK2 (LIMK2 P53671-3, experiment wp105): −0.8401
logFC (MARK2 Q7KZI7-14, experiment wp105): −0.4159
logFC (MARK2 Q7KZI7-14, experiment wp133, 4 hr): −0.4086
logFC (PIP5K1A (Q99755-3), experiment wp107): −0.45
logFC (PIP5K1A (Q99755-3), experiment wp133, 4 hr): −0.3712
logFC (PTK2B (Q14289-2), experiment wp107, direction down): −3.126
logFC PTK2B (PTK2B, accession Q14289-2, experiment wp107, direction of change down): −3.126
logFC RPS6KA1 (experiment wp016, 1 uM): −0.4146
logFC RPS6KA1 (experiment wp133, 4 hr): −0.3598
logFC (SRC (P12931-2) protein abundance, degrader vs DMSO, 1 uM, down): −0.8428
logFC (SRC (P12931-2) protein abundance, degrader vs DMSO, 4 hr, down): −0.6408
logFC (STK40 (Q8N2I9-4), experiment wp105, direction down): −0.606
logFC (STK40 Q8N2I9-4, experiment wp105): −0.606
logFC (TNK2 (Q07912-3), experiment wp107, direction down): −1.18
logFC CDK9 (P50750-2) (experiment wp016): −0.6515
logFC PRKAA1 (Q13131-2) (experiment wp016): −0.4914
logFC ABL1 (P00519-2) (experiment wp016, 1 uM): −0.3875
logFC CDK9 (P50750-2) (experiment wp016, 1 uM): −1.356
logFC PRKAA1 (Q13131-2) (experiment wp016, 1 uM): −0.7977
logFC RPS6KA1 (Q15418-2) (experiment wp016, 1 uM): −0.4146
logFC LCK (P06239-3) [2]: −1.579
logFC LCK (P06239-3) [3]: −0.9189
logFC PRKAA1 (Q13131-2) (experiment wp103): −0.5012
logFC LCK (P06239-3) [4]: −1.148
logFC ABL1 (P00519-2) (experiment wp105): −0.333
logFC CDK9 (P50750-2) (experiment wp105): −0.6775
logFC CDK16 (Q00536-2) (experiment wp105): −0.6346
logFC PRKAA1 (Q13131-2) (experiment wp105): −0.4413
logFC of CDK18 (Q07002-3) (experiment wp105): −1.233
logFC of MARK2 (Q7KZI7-14) (experiment wp105): −0.4159
logFC ABL1 (P00519-2) (experiment wp107): −0.4711
logFC CDK16 (Q00536-2) (experiment wp107): −0.4701
logFC PRKAA1 (Q13131-2) (experiment wp107): −0.6352
logFC ULK3 (Q6PHR2-4) (experiment wp107): −1.084
logFC LCK (P06239-3) [5]: −1.575
logFC TGFBR1 (P36897-2) [5]: −0.5264
logFC ULK3 (Q6PHR2-4) [5]: −1.084
logFC CDK9 (P50750-2) (experiment wp133, 2 hr): −0.3971
logFC PRKAA1 (Q13131-2) (experiment wp133, 2 hr): −0.3804
logFC LCK (P06239-3) [6]: −0.5352
logFC ABL1 (P00519-2) (experiment wp133, 4 hr): −0.3801
logFC CDK9 (P50750-2) (experiment wp133, 4 hr): −1.037
logFC PRKAA1 (Q13131-2) (experiment wp133, 4 hr): −0.6752
logFC RPS6KA1 (Q15418-2) (experiment wp133, 4 hr): −0.3598
logFC of MARK2 (Q7KZI7-14) (experiment wp133, 4 hr): −0.4086
logFC LCK (P06239-3) [7]: −1.277
logFC of CDK12 (Q9NYV4-2) (experiment wp160, 4 hr): −0.8448
logFC MAP3K12 (protein MAP3K12 (Q12852-2), experiment wp105, down): −0.6931
logFC TGFBR1 (protein TGFBR1 (P36897-2), experiment wp107, down): −0.5264
logFC TNK1 (protein TNK1 (Q13470-2), experiment wp114, down): −0.7394
